In patent EP2951180B1, “2,6,7,8 SUBSTITUTED PURINES AS HDM2 INHIBITORS” (Merck Sharp & Dohme Corp., priority 2013, dated 2014):

Each compound was assayed against T1, HDM2 (Homo sapiens, UniProt Q00987) (assay: FRET assay (HDM2 inhibition; method not described in this part)). Conditions: Table 1.
T1 construct: Thioredoxin (N); made in house; host or cells: E. coli strain BL21(DE3)Rosetta
T1 sequence (Q00987 17-125): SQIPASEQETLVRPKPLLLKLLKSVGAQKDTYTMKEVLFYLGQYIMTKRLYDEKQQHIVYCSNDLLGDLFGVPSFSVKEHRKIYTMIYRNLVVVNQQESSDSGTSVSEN
Type: binding
C[C@@H](Nc1nc(C(=O)O)nc2nc(-c3cc(C(C)(C)C)cc(C(C)(C)C)c3)n(Cc3ccc(C(F)(F)F)cc3)c12)C1CCC1 [Example 1.128, 6-{[(1R)-1-cyclobutylethyl]amino}-8-(3,5-di-tert-butylphenyl)-7-[4-(trifluoromethyl)benzyl]-7H-purine-2-carboxylic acid] showed an IC50 of 224 nM. For Cc1cc(OC(F)(F)F)ccc1-c1nc2nc(C(=O)O)nc(N[C@H](C)C3CCC3)c2n1Cc1ccc(C(F)(F)F)cc1 [Example 1.129, 6-{[(1R)-1-cyclobutylethyl]amino}-8-[2-methyl-4-(trifluoromethoxy)phenyl]-7-[4-(trifluoromethyl)benzyl]-7H-purine-2-carboxylic acid], the IC50 was 46 nM. Compound C[C@@H](Nc1nc(C(=O)O)nc2nc(-c3cccc(Nc4ccccc4)c3)n(Cc3ccc(C(F)(F)F)cc3)c12)C1CCC1 [Example 1.130, 6-{[(1R)-1-cyclobutylethyl]amino}-8-[3-(phenylamino)phenyl]-7-[4-(trifluoromethyl)benzyl]-7H-purine-2-carboxylic acid] has an IC50 of 76.3 nM. Compound Cc1cc(C)cc(-c2nc3nc(C(=O)O)nc(N[C@H](C)C4CCC4)c3n2Cc2ccc(C(F)(F)F)cc2)c1 [Example 1.131, 6-{[(1R)-1-cyclobutylethyl]amino}-8-(3,5-dimethylphenyl)-7-[4-(trifluoromethyl)benzyl]-7H-purine-2-carboxylic acid] has an IC50 of 369 nM. Cc1ccc(Cl)cc1-c1nc2nc(C(=O)O)nc(N[C@H](C)C3CCC3)c2n1Cc1ccc(C(F)(F)F)cc1 [Example 1.132, 8-(5-chloro-2-methylphenyl)-6-{[(1R)-1-cyclobutylethyl]amino}-7-[4-(trifluoromethyl)benzyl]-7H-purine-2-carboxylic acid] gave an IC50 of 524 nM. Compound COc1ccc2cc(-c3nc4nc(C(=O)O)nc(N[C@H](C)C5CCC5)c4n3Cc3ccc(C(F)(F)F)cc3)ccc2c1 [Example 1.133, 6-{[(1R)-1-cyclobutylethyl]amino}-8-(6-methoxynaphthalen-2-yl)-7-[4-(trifluoromethyl)benzyl]-7H-purine-2-carboxylic acid] has an IC50 of 73.3 nM. With COc1c(C)cc(-c2nc3nc(C(=O)O)nc(N[C@H](C)C4CCC4)c3n2Cc2ccc(C(F)(F)F)cc2)cc1C [Example 1.134, 6-{[(1R)-1-cyclobutylethyl]amino}-8-(4-methoxy-3,5-dimethylphenyl)-7-[4-(trifluoromethyl)benzyl]-7H-purine-2-carboxylic acid] the IC50 was 56.2 nM. Compound C[C@@H](Nc1nc(C(=O)O)nc2nc(-c3ncccc3C(F)(F)F)n(Cc3ccc(C(F)(F)F)cc3)c12)C1CCC1 [Example 1.135, 6-{[(1R)-1-cyclobutylethyl]amino}-7-[4-(trifluoromethyl)benzyl]-8-[3-(trifluoromethyl)pyridin-2-yl]-7H-purine-2-carboxylic acid] has an IC50 of 47.9 nM. COc1ccc(-c2nc3nc(C(=O)O)nc(N[C@H](C)C4CCC4)c3n2Cc2ccc(C(F)(F)F)cc2)c(F)c1 [Example 1.136, 6-{[(1R)-1-cyclobutylethyl]amino}-8-(2-fluoro-4-methoxyphenyl)-7-[4-(trifluoromethyl)benzyl]-7H-purine-2-carboxylic acid] showed an IC50 of 125 nM. Compound Cc1cc(-c2nc3nc(C(=O)O)nc(N[C@H](C)C4CCC4)c3n2Cc2ccc(C(F)(F)F)cc2)ccc1F [Example 1.137, 6-{[(1R)-1-cyclobutylethyl]amino}-8-(4-fluoro-3-methylphenyl)-7-[4-(trifluoromethyl)benzyl]-7H-purine-2-carboxylic acid] has an IC50 of 49.7 nM. CCOc1ccc(C)cc1-c1nc2nc(C(=O)O)nc(N[C@H](C)C3CCC3)c2n1Cc1ccc(C(F)(F)F)cc1 [Example 1.138, 6-{[(1R)-1-cyclobutylethyl]amino}-8-(2-ethoxy-5-methylphenyl)-7-[4-(trifluoromethyl)benzyl]-7H-purine-2-carboxylic acid] was tested, and the IC50 was 15.8 nM.

Same assay, conditions: Table 2
For COc1cccc(-c2nc3nc(C(=O)O)nc(N[C@H](C)C4CCC4)c3n2Cc2ccc(C(F)(F)F)cc2)c1 [Example 2.1, (R)-6-((1-cyclobutylethyl)amino)-8-(3-methoxyphenyl)-7-(4-(trifluoromethyl)benzyl)-7H-purine-2-carboxylic acid], the IC50 was 37.5 nM. With Cc1cc(C2CC2)ccc1-c1nc2nc(C(=O)O)nc(N[C@H](C)C3CCC3)c2n1Cc1ccc(C(F)(F)F)cc1 [Example 2.2, (R)-6-((1-cyclobutylethyl)amino)-8-(4-cyclopropyl-2-methylphenyl)-7-(4-(trifluoromethyl)benzyl)-7H-purine-2-carboxylic acid] the IC50 was 151 nM. For C[C@@H](Nc1nc(C(=O)O)nc2nc(Cc3ccccc3)n(Cc3ccc(C(F)(F)F)cc3)c12)C1CCC1 [Example 2.3, (R)-8-benzyl-6-((1-cyclobutylethyl)amino)-7-(4-(trifluoromethyl)benzyl)-7H-purine-2-carboxylic acid], the IC50 was 3.66 nM. For C[C@@H](Nc1nc(C(=O)O)nc2nc(C3CCCCC3)n(Cc3ccc(C(F)(F)F)cc3)c12)C1CCC1 [Example 2.4, (R)-6-((1-cyclobutylethyl)amino)-8-cyclohexyl-7-(4-(trifluoromethyl)benzyl)-7H-purine-2-carboxylic acid], the IC50 was 11.5 nM. With C[C@@H](Nc1nc(C(=O)O)nc2nc(-c3cccc(Cl)c3)n(Cc3ccc(Cl)cc3)c12)C1CC1 [Example 2.5, 7-(4-chlorobenzyl)-8-(3-chlorophenyl)-6-{[(1R)-1-cyclopropylethyl]amino}-7H-purine-2-carboxylic acid] the IC50 was 218 nM. For Cc1cccc(-c2nc3nc(C(=O)O)nc(N[C@H](C)C4CC4)c3n2Cc2ccc(Cl)cc2)c1 [Example 2.6, 7-(4-chlorobenzyl)-6-{[(1R)-1-cyclopropylethyl]amino}-8-(3-methylphenyl)-7H-purine-2-carboxylic acid], the IC50 was 209 nM. In the case of C[C@@H](Nc1nc(C(=O)O)nc2nc(-c3ccc4sccc4c3)n(Cc3ccc(Cl)cc3)c12)C1CC1 [Example 2.7, 8-(1-benzothiophen-5-yl)-7-(4-chlorobenzyl)-6-{[(1R)-1-cyclopropylethyl]amino}-7H-purine-2-carboxylic acid], the IC50 is reported as 259 nM. In the case of Cc1cccc(-c2nc3nc(C(=O)O)nc(N[C@H](C)C4CC4)c3n2Cc2ccc(C(F)(F)F)cc2)c1 [Example 2.8, 6-{[(1R)-1-cyclopropylethyl]amino}-8-(3-methylphenyl)-7-[4-(trifluoromethyl)benzyl]-7H-purine-2-carboxylic acid], the IC50 is reported as 28.4 nM. C[C@@H](Nc1nc(C(=O)O)nc2nc(-c3ccc(Cl)cc3)n(Cc3ccc(Cl)cc3)c12)C1CC1 [Example 2.9, 7-(4-chlorobenzyl)-8-(4-chlorophenyl)-6-{[(1R)-1-cyclopropylethyl]amino}-7H-purine-2-carboxylic acid] showed an IC50 of 43.8 nM. Compound C[C@@H](Nc1nc(C(=O)O)nc2nc(-c3ccc4sccc4c3)n(Cc3ccc(Cl)cc3)c12)C1CCC1 [Example 2.10, 8-(1-benzothiophen-5-yl)-7-(4-chlorobenzyl)-6-{[(1R)-1-cyclobutylethyl]amino}-7H-purine-2-carboxylic acid] has an IC50 of 7.2 nM. Cc1cccc(-c2nc3nc(C(=O)O)nc(N[C@H](C)C4CCC4)c3n2Cc2ccc(C(F)(F)F)cc2)c1 [Example 2.11, 6-{[(1R)-1-cyclobutylethyl]amino}-8-(3-methylphenyl)-7-[4-(trifluoromethyl)benzyl]-7H-purine-2-carboxylic acid] gave an IC50 of 36.6 nM. Compound Cc1ccc(C)c(-c2nc3nc(C(=O)O)nc(N[C@H](C)C4CC4)c3n2Cc2ccc(Cl)cc2)c1 [Example 2.12, 7-(4-chlorobenzyl)-6-{[(1R)-1-cyclopropylethyl]amino}-8-(2,5-dimethylphenyl)-7H-purine-2-carboxylic acid] has an IC50 of 199 nM. Compound Cc1cc(-c2nc3nc(C(=O)O)nc(N[C@H](C)C4CC4)c3n2Cc2ccc(Cl)cc2)ccc1F [Example 2.13, 7-(4-chlorobenzyl)-6-{[(1R)-1-cyclopropylethyl]amino}-8-(4-fluoro-3-methylphenyl)-7H-purine-2-carboxylic acid] has an IC50 of 40.4 nM. For COc1cccc(-c2nc3nc(C(=O)O)nc(N[C@H](C)C4CC4)c3n2Cc2ccc(C(F)(F)F)cc2)c1 [Example 2.14, 6-{[(1R)-1-cyclopropylethyl]amino}-8-(3-methoxyphenyl)-7-[4-(trifluoromethyl)benzyl]-7H-purine-2-carboxylic acid], the IC50 was 339 nM. For CCOc1cccc(-c2nc3nc(C(=O)O)nc(N[C@H](C)C4CC4)c3n2Cc2ccc(C(F)(F)F)cc2)c1 [Example 2.15, 6-{[(1R)-1-cyclopropylethyl]amino}-8-(3-ethoxyphenyl)-7-[4-(trifluoromethyl)benzyl]-7H-purine-2-carboxylic acid], the IC50 was 304 nM. CCc1cccc(-c2nc3nc(C(=O)O)nc(N[C@H](C)C4CC4)c3n2Cc2ccc(C(F)(F)F)cc2)c1 [Example 2.16, 6-{[(1R)-1-cyclopropylethyl]amino}-8-(3-ethylphenyl)-7-[4-(trifluoromethyl)benzyl]-7H-purine-2-carboxylic acid] gave an IC50 of 180 nM. In the case of CCOc1cccc(-c2nc3nc(C(=O)O)nc(N[C@H](C)C4CCC4)c3n2Cc2ccc(C(F)(F)F)cc2)c1 [Example 2.17, 6-{[(1R)-1-cyclobutylethyl]amino}-8-(3-ethoxyphenyl)-7-[4-(trifluoromethyl)benzyl] -7H-purine-2-carboxylic acid], the IC50 is reported as 40.2 nM. Work on CC(C)c1cccc(-c2nc3nc(C(=O)O)nc(N[C@H](C)C4CC4)c3n2Cc2ccc(C(F)(F)F)cc2)c1 [Example 2.18, 6-{[(1R)-1-cyclopropylethyl]amino}-8-[3-(1-methylethyl)phenyl]-7-[4-(trifluoromethyl)benzyl]-7H-purine-2-carboxylic acid] yielded an IC50 of 123 nM. Compound C[C@@H](Nc1nc(C(=O)O)nc2nc(-c3cccc(C(C)(C)C)c3)n(Cc3ccc(C(F)(F)F)cc3)c12)C1CC1 [Example 2.19, 8-(3-tert-butylphenyl)-6-{[(1R)-1-cyclopropylethyl]amino}-7-[4-(trifluoromethyl)benzyl]-7H-purine-2-carboxylic acid] has an IC50 of 145 nM. Compound C[C@@H](Nc1nc(C(=O)O)nc2nc(-c3ccc(C(F)(F)F)cc3)n(Cc3ccc(C(F)(F)F)cc3)c12)C1CC1 [Example 2.20, 6-{[(1R)-1-cyclopropylethyl]amino}-7-[4-(trifluoromethyl)benzyl]-8-[4-(trifluoromethyl)phenyl]-7H-purine-2-carboxylic acid] has an IC50 of 1410 nM.
